Assay results reported in PMC8279484 (Journal of Medicinal Chemistry, 2021).
One block for each compound: values may come before it.

Experiments:
ALX/FPR2 receptor = biological target: T1, ALX/FPR2 receptor (Homo sapiens, UniProt P25090); experiment: Intracellular calcium flux in FPR2+/Gαq+ stably transfected HEK-293; format: cell-based; conditions: ATP 1 μM; Wp 2 nM
T1 construct: host or cells: HEK-293, stably double-transfected FPR2+/Gαq+
T1 sequence (P25090 1-351): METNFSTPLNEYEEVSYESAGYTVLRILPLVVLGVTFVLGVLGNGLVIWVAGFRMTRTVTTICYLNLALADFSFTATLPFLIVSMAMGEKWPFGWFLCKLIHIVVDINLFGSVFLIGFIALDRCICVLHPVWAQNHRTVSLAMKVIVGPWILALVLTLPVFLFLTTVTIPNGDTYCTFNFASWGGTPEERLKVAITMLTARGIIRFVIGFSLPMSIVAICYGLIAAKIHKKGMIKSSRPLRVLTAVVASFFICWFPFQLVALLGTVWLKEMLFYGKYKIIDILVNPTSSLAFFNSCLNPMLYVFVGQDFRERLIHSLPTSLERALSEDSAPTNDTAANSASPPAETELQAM
Description: HEK-293-transfected and wt cell lines were cultured in Dulbecco’s modified Eagle’s medium (DMEM Glutamax, 4 mM L-glu and 4.50 g/L glucose—Gibco, Ireland) supplemented with heat-inactivated (30 min at 56C) 10% (v/v) FBS (Invitrogen, U.K.), 50 U penicillin, and 50 μg of streptomycin (Invitrogen, U.K.). As stably double-transfected FPR2^+/Gαq^+ HEK-293 cells were resistant to Geneticin and Hygromycin, these were used as selective antibiotics (500 and 100 μg/mL, respectively) to maintain the stable double transfection with the ALX/FPR2 receptor and the Gαq subunit coupled to it. Immediately prior to calcium measurement, fluorescently labeled cells were treated with 10^–11/–9/–7M LXA41 or sLXms using an injection system coupled to the fluorescence reader.
To explore the mechanism of action through which the sLXm lead compound exerts the effects seen here, its interaction with the ALX/FPR2 receptor was investigated and agonist-induced intracellular calcium transients were measured using an engineered cell line stably overexpressing the ALX/FPR2 receptor and the Gαq subunit coupled to it (Figure S6). Wild-type HEK cells were used as controls, to verify the specificity of the agonism toward ALX/FPR2, as previously reported.[36] Briefly, prior to cell plating, sterile 96-well plates (black-sided with optically clear glass flat bottoms) were PDL-coated overnight. Subsequently, 2 × 10^5 wild-type cells and overexpressed cells/well were cultured for 18 h in DMEM complete media (containing Ca^2+ and Mg^2+) to facilitate adherence prior to labeling with Fluo-4 dye. After 1 h of incubation at 37 °C with Fluo-4, cells were gently washed twice and placed in 100% Hanks’ balanced salt solution (HBSS; 37 °C) before reading the fluorescence (485/535 nm), using a spectrophotometer conjugated with an injection system (Clariostar BMG LABTECH plate reader), allowing addition to the cells of controls ([…], 2 nM Wp, a synthetic ALX/FPR2 agonist) or experimental treatments [10 pM, 1 nM, and 100 nM LXA41 or (R)-6].
During calcium flux measurement, the kinetic steps involved were the following: the baseline fluorescent signal was measured for 20 s, followed by 100 s immediately after agonist injection. Subsequently, 2% Triton-X-100 was added to lyse the cells (monitoring for 20 s the maximal release of calcium ions in the extracellular environment) and, finally, 25 mM tetraacetic acid (EGTA) was added to chelate calcium ions (monitoring for additional 20 s the minimal detection of calcium ions in the extracellular environment) (Figure S7).
(§1) The “coding” of the heat-map indicates the arbitrary criteria to assign points to each single PD component (efficacy = Imax or Emax; potency = IC50 or EC50; slope = HS) to generate a final (aggregate) relative PD score. If a single PD component was greater than the reference level (x > 1), then the single-component relative score was arbitrarily set to +1 (light green) or +2 (dark green). If a single PD component was equal to the reference level (x = 1), then the single-component relative score was arbitrarily set to 0 (gray). If a single PD component was smaller than the reference level (x < 1), then the single-component relative score was arbitrarily set to −1 (light red) or −2 (dark red). If the curve of a single PD component was best fitting to a flat line (x = 0), then the single-component relative score was arbitrarily set to −4 (purple) (Table S1).

wild-type HEK-293 cells = experiment: Intracellular calcium flux in wild-type HEK-293 (specificity control); format: cell-based, human
Description: To explore the mechanism of action through which the sLXm lead compound exerts the effects seen here, its interaction with the ALX/FPR2 receptor was investigated and agonist-induced intracellular calcium transients were measured using an engineered cell line stably overexpressing the ALX/FPR2 receptor and the Gαq subunit coupled to it (Figure S6). Wild-type HEK cells were used as controls, to verify the specificity of the agonism toward ALX/FPR2, as previously reported.[36] Briefly, prior to cell plating, sterile 96-well plates (black-sided with optically clear glass flat bottoms) were PDL-coated overnight. Subsequently, 2 × 10^5 wild-type cells and overexpressed cells/well were cultured for 18 h in DMEM complete media (containing Ca^2+ and Mg^2+) to facilitate adherence prior to labeling with Fluo-4 dye. After 1 h of incubation at 37 °C with Fluo-4, cells were gently washed twice and placed in 100% Hanks’ balanced salt solution (HBSS; 37 °C) before reading the fluorescence (485/535 nm), using a spectrophotometer conjugated with an injection system (Clariostar BMG LABTECH plate reader), allowing addition to the cells of controls (1 mM ATP, a GPCR purinergic agonist, 2 nM Wp, a synthetic ALX/FPR2 agonist) or experimental treatments [10 pM, 1 nM, and 100 nM LXA41 or (R)-6].

IL-6 = experiment: LPS-induced IL-6 release from THP-1 Lucia monocytes (multiplex electrochemiluminescence); format: cell-based, human; conditions: Dex 1 μM; 2 1 pM; LPS 50 ng/mL, 24 h
Description: (§2) LXA41 and all of the tested sLXms were dissolved in ethanol and further diluted in a culture medium (final ethanol concentration 0.1%; equivalent concentrations were used as the vehicle control). Prior to in vitro experiments, THP-1-Lucia NF-κB cells were harvested and plated at 1 × 10^5 cells/well on 96-well plates and left to settle in the incubator at 37 °C, 95% humidity, and 5% CO2, in 0.1% FBS-containing media, pretreated for 30 min with increasing doses of LXA41, sLXms (from 10^–12 to 10^–6 M), or appropriate controls, followed by stimulation with 50 ng/mL LPS for 24 h. Untreated (Unt) or vehicle-treated (Veh) cells were used as negative controls; 1 pM (1R)-5, the (1R)-epimer of the benzo-mimetic, was used as a positive control for any aromatic mimetic; and, finally, we compared the observed effects to the conventional glucocorticoid dexamethasone (Dex) treatment, at 1 μM.
(§3) After 24 h of exposure to LXA41, sLXms, or vehicle, followed by LPS stimulation (50 ng/mL), as described above, THP-1-Lucia NF-κB-cell supernatants were collected and cleared by centrifugation. Concentrations of IFN-γ, IL-1β, IL-6, IL-8, IL-10, IL-12p70, and TNF-α in culture supernatants were assessed by electro-chemi-luminescent detection, using a commercially available human 96-well plate “multiplex” (several analytes in the same well) kit for tissue culture samples, according to the manufacturers’ guidelines.
as §1

IL-1β = experiment: LPS-induced IL-1β release from THP-1 Lucia monocytes (multiplex electrochemiluminescence); format: cell-based, human; conditions: Dex 1 μM; 2 1 pM; LPS 50 ng/mL, 24 h
Description: as §2, §3, §1

IFNγ = experiment: LPS-induced IFNγ release from THP-1 Lucia monocytes (multiplex electrochemiluminescence); format: cell-based, human; conditions: Dex 1 μM; 2 1 pM; LPS 50 ng/mL, 24 h
Description: as §2, §3, §1

THP-1 LUCIA monocytes [1] = experiment: Intrinsic cytotoxicity: LDH release without LPS; format: cell-based, human; conditions: absence of LPS, 24 h; controls Dex 1 μM, 2 1 pM, 5 1 pM
Description: (§4) We investigated the potential cytotoxicity of all candidate sLXms by assaying LDH release.[50] The response to LPS was arbitrarily set to 100%, and values were expressed relative to this. As previously reported by others, LPS provokes LDH release.[51] […] Ultimately, untreated cells defined the spontaneous cell release thresholds.
(§5) Lactate dehydrogenase (LDH) was assayed in cell supernatants to investigate possible cytotoxicity of the lead compound. LDH is rapidly released into the culture medium after disruption of the plasma membrane.[67],[69] After 24 h of exposure to sLXms, vehicle, or controls, followed by LPS stimulation, as described above, THP-1-Lucia NF-κB-cell supernatants were collected and LDH was assayed. Cytotoxicity was evaluated relative to vehicle controls. Maximum releasable LDH was determined in cells lysed with 2% Triton-X-100 (Sigma-Aldrich, Ireland). LDH levels were assessed by reading the absorbance at 490 nm (protein) and 690 nm (background noise), using a spectrophotometer (SPECTRAMAX M2, Molecular Devices (U.K.) Limited).

NF-κB = test system: NF-κB; parameters: method as in PMID 30213823; conditions: LXA4 1 0.1 nM; 2 1 nM; cited from earlier work
IL-8 = experiment: LPS-induced IL-8 release from THP-1 Lucia monocytes (multiplex electrochemiluminescence); format: cell-based, human; conditions: Dex 1 μM; 1 1 nM; (R)-6 concentration not given
Description: as §2, §3

THP-1 LUCIA monocytes [2] = experiment: Extrinsic cytotoxicity: LDH release after LPS challenge; format: cell-based, human; conditions: Dex 1 μM
Description: as §4, §5

C57BL/6J mice = experiment: Murine zymosan-induced peritonitis; format: in vivo, mouse
Description: Male C57BL/6J mice of 9 weeks of age were purchased from Charles River (Kent, U.K.) and were housed in a specific pathogen-free facility in individually ventilated and filtered cages under positive pressure. Peritonitis was induced in mice by ip injection of zymosan (purchased from Sigma-Aldrich; 1 mg per mouse in 0.5 mL of phosphate-buffered saline (PBS)).[73] Mice were treated with dexamethasone (1 μg/g) purchased from Sigma-Aldrich 1 h prior to zymosan injection or (R)-6 (2 and 6 ng/g) (200 μL IP) 30 min prior to zymosan injection. Peritoneal cells were collected by lavage 4 h after injection of zymosan. The local Animal Use and Care Committee and The UK Home Office approved the animal experiments in accordance with the derivatives of both The Home Office Guidance on the Operation of Animals (Scientific Procedures) Act 1986 and The Guide for the Care and Use of Laboratory Animals of the National Research Council.
Surface marker expression on peritoneal cells was assessed by flow cytometry with data collection on a FACSCalibur (Becton Dickinson). Data were analyzed with FlowJo analysis software (Treestar Inc.). Cells were stained with AlexaFluor488 conjugated anti-F4/80 (clone BM8; eBioscience); APC conjugated anti-CD11b (clone M1/70; eBioscience) and Pacific blue conjugated anti-Ly6G (clone 1A8; BioLegend) antibodies. Prior to surface staining, peritoneal cells were counted manually (Neubauer chamber) with Turks solution. Using appropriate fluorescence minus one (FMO) controls, quadrants were drawn, and data were plotted on logarithmic-scale density- or dot-plots.

Compound: Nc1ncnc2c1ncn2[C@@H]1O[C@H](COP(=O)(O)OP(=O)(O)OP(=O)(O)O)[C@@H](O)[C@H]1O [ATP]
- Ca^2+ mobilization by positive controls (ALX/FPR2 receptor): Ca^2+ mobilization was observed
- Ca^2+ mobilization in wild-type HEK-293 cells (wild-type HEK-293 cells): stimulated Ca^2+ mobilization

Compound: CCCCC[C@@H](O)c1ccccc1/C=C/[C@@H](O)[C@@H](O)CCCC(=O)OC [Compound 2, benzo-LXA4, reference compound]
- Imax, IL-6 release, single-point controls (IL-6): 42 ± 3%
- Imax, IL-1β release, single-point controls (IL-1β): 59 ± 4%
- attenuation of IFNγ release, single-point controls (IFNγ): did not significantly alter
- intrinsic LDH release versus vehicle / spontaneous cell release (THP-1 LUCIA monocytes [1]): did not display any significant cytotoxic effect
- effect on TNF-α-stimulated NF-κB activity (NF-κB): reduced TNF-α-stimulated NF-κB activity

Compound: C[C@@H]1C[C@H]2[C@@H]3CCC4=CC(=O)C=C[C@]4(C)[C@@]3(F)[C@@H](O)C[C@]2(C)[C@@]1(O)C(=O)CO [Dex, dexamethasone, reference compound]
- Imax, IL-6 release, single-point controls (IL-6): 98 ± 1%
- Imax, IL-1β release, single-point controls (IL-1β): 86 ± 6%
- attenuation of IFNγ release, single-point controls (IFNγ): 56 ± 2%
- enhancement of LPS-induced secretion of IL-8 (IL-8): 2.5 fold
- intrinsic LDH release versus vehicle / spontaneous cell release (THP-1 LUCIA monocytes [1]): did not display any significant cytotoxic effect
- effect on LPS-induced LDH (THP-1 LUCIA monocytes [2]): did not reduce LPS-induced LDH
- Total no of PMNs (C57BL/6J mice; Dex ip (1 mg/kg in Figure 9) + zymosan 40 mg/kg, n = 5 mice): 2.4 ± 0.7 × 10^6/mL
- relative proportion of PMNs and monocytes/macrophages (flow cytometry) (C57BL/6J mice; peritoneal cells, data not shown): not to be altered

- Ca^2+ mobilization by positive controls (ALX/FPR2 receptor): Ca^2+ mobilization was observed
Compound: W-peptide [Wp]
- Ca^2+ mobilization in wild-type HEK-293 cells (wild-type HEK-293 cells): without effect
